From publication PMC11855086, “Synthesis, Antimicrobial Activity, and Tyrosinase Inhibition by Multifunctional 3,4-Dihydroxy-Phenyl Peptidomimetics” (International Journal of Molecular Sciences, 2025)
≈ marks a conversion by molar mass, not a printed value.

Columns and labels:
E. coli R4 (ATCC 39543) = test: MIC and MBC, microtiter plate technique; format: cell-based; conditions: Escherichia coli; for MBC: ATCC39543; for MIC: ATCC39543, 24 h
[1] = target: T1, mushroom tyrosinase (mTYR) (Agaricus bisporus, UniProt C7FF04); test: Tyrosinase assay with L-DOPA as substrate (absorbance at 475 nm); format: biochemical; conditions: 100 µM compound
T1 construct: purchased Sigma-Aldrich (Poznan, Poland); host or cells: Agaricus bisporus (extracted natural enzyme)
Source text: Tyrosinase (Tyr) extracted from Agaricus bisporus (mushroom tyrosinase, mTYR) is commonly used as a model enzyme for human Tyr due to its high purity, stability, and commercial availability. It is frequently used in the selection of TYR inhibitors. Following established literature protocols, L-tyrosine and L-DOPA, which serve as substrates for monophenol and diphenol oxidation, respectively, were used to assess the tyrosinase inhibitory activity of synthesized target compounds [21].
Tyrosinase (Tyr) activity was measured using L-DOPA as substrate and phosphate buffer solution (PBS) as blank control, following the method described by Min He et al. (2022) with an ultraviolet spectrophotometer (Carry-300, Agilent Life Sciences and Chemical Analysis, Santa Clara, CA, USA). […] Before the experiment, 2.9 mL of PBS and 0.1 mL of DMSO were used to account for the influence of the background solvent. The inhibitor solution (100 µL), substrate solution (2.8 mL), and Tyr solution (100 µL) were then added to a quartz colorimetric cuvette. After a one-minute mixing period, the absorption spectra of the mixture were continuously recorded at 475 nm using the UV spectrophotometer (Carry-300) for 5 min over a period of every 30 s. The tyrosinase inhibition rate was calculated as follows:Relative enzyme activity (%) = (A1 − A2)/A1 × 100
A1 = Absorbance of L-DOPA and inhibitor.
A2 = Absorbance of L-DOPA, inhibitor, and tyrosinase.

[2] = system: P. aeruginosa (ATCC 15442); test: MIC and MBC, microtiter plate technique; format: cell-based; conditions: ATCC15442, Pseudomonas aeruginosa; for MIC: 24 h, resazurin; for MBC: TTC
E. coli R2 (ATCC 39544) = test: MIC and MBC, microtiter plate technique; format: cell-based; conditions: Escherichia coli; for MBC: ATCC39544; for MIC: ATCC39544, 24 h
E. coli K12 (ATCC 25404) = test: MIC and MBC, microtiter plate technique; format: cell-based; conditions: Escherichia coli; for MBC: ATCC25404; for MIC: ATCC25404, 24 h
E. cloacae (ATCC 49141) = test: MIC and MBC, microtiter plate technique; format: cell-based; conditions: ATCC49141, Enterobacter cloacae; for MIC: 24 h, resazurin; for MBC: TTC
E. coli R3 (ATCC 11775) = test: MIC and MBC, microtiter plate technique; format: cell-based; conditions: Escherichia coli; for MIC: ATCC11775, 24 h, resazurin; for MBC: ATCC11775, TTC
[3] = system: A. baumannii (ATCC 17978); test: MIC and MBC, microtiter plate technique; format: cell-based; conditions: ATCC17978, Acinetobacter baumannii; for MIC: 24 h, resazurin; for MBC: TTC
[4] = target: T1, mushroom tyrosinase (mTYR); set-up: method as in earlier work; conditions: reported value; cited from earlier work
S. aureus (ATCC 23235) = test: microbe, parasite or virus in culture; format: cell-based; conditions: Staphylococcus aureus; for MBC: ATCC23235; for MIC: ATCC23235, 24 h
MTT cytotoxicity assay = format: cell-based; conditions: mouse, BALB/c3T3 mouse embryonic fibroblast cells; 24 h of incubation; (±0.14); read-out: half maximum inhibitory concentration (IC50), cytotoxicity
Method: Following the completion of MIC and MBC assays on the analyzed bacterial strains, and subsequent treatment with Fpg protein modified by peptidomimetics along with selected antibiotics, a further MTT assay was conducted to evaluate the cytotoxicity of the compounds employing the BALB/c3T3 mouse embryonic fibroblast cell line (Figure 10).
BALB/c3T3 mouse embryonic fibroblast cells were exposed to peptidomimetics across concentrations ranging from 0.5 µM to 3.5 µM and incubated for a duration of 24 h. […] The highest concentrations (2.5 µM and 3.5 µM) inhibited cell viability, which was reduced to 20.2% and 1.0%, respectively (Figure 10 and Figure S40 in the Supplementary Materials).
The cytotoxic effects of aldehyde 1 and peptidomimetics 5a–r on BALB/c3T3 mouse fibroblast cells were assessed utilizing the MTT assay following a 24 h incubation period across five different concentrations (0.5, 1.0, 1.5, 2.5, and 3.5 µM). The MTT assay is predicated upon the capacity of mitochondrial dehydrogenase enzymes to convert the water-soluble tetrazolium salt, 3-([…])-2,5-diphenyltetrazolium bromide (MTT), into an insoluble formazan product, manifesting as dark blue crystals. These formazan crystals are then dissolved in DMSO or isopropanol, forming a colored solution whose intensity is measured spectrophotometrically within the wavelength range of 492–570 nm. The amount of MTT reduced corresponds to the oxidative activity of the mitochondria, which is directly proportional to the number of metabolically active cells in the population under defined experimental conditions. The MTT assay can also be used to assess cell viability in non-dividing metabolically active cells. It is one of the most widely used methods to assess cytotoxic activity and is recommended by international standards organizations as a reference method.

[5] = system: E. coli, A. baumannii, P. aeruginosa, E. cloacae, and S. aureus; test: MIC and MBC over all model bacterial strains (summary statements); format: cell-based; conditions: Gram-positive and Gram-negative bacteria

T1 sequence (C7FF04 1-392 limits assumed): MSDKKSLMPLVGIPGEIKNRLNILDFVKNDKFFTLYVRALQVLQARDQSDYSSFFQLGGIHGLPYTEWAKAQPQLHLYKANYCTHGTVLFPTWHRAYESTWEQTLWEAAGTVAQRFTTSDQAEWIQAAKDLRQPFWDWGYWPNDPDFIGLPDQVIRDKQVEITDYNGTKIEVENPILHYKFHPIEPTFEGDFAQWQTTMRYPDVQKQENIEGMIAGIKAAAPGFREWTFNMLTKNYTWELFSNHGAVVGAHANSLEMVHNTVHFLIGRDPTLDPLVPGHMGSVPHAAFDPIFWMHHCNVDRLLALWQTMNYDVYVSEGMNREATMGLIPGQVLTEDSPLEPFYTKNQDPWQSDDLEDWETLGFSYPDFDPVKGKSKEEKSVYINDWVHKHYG

Structure (SMILES) | MBC (E. coli R4 (ATCC 39543)) | MIC (E. coli R4 (ATCC 39543)) | inhibition at 100 µM [1] | MIC [2] | MBC [2] | MBC (E. coli R2 (ATCC 39544)) | MIC (E. coli R2 (ATCC 39544)) | MBC (E. coli K12 (ATCC 25404)) | MIC (E. coli K12 (ATCC 25404)) | MIC (E. cloacae (ATCC 49141)) | MBC (E. cloacae (ATCC 49141)) | MIC (E. coli R3 (ATCC 11775)) | MBC (E. coli R3 (ATCC 11775)) | MIC [3] | MBC [3] | IC50 [4] | MBC (S. aureus (ATCC 23235)) | MIC (S. aureus (ATCC 23235)) | IC50 at 24 h (MTT cytotoxicity assay) | antibacterial spectrum [5]
O=Cc1ccc(O)c(O)c1 [Compound 1, 3,4-dihydroxybenzaldehyde, reference compound] | 3.58 µM (≈ 0.494 µg/mL) | 3.57 µM (≈ 0.493 µg/mL) | 15% | 3 µM (≈ 0.414 µg/mL) | 3.33 µM (≈ 0.46 µg/mL) | 2.6 µM (≈ 0.359 µg/mL) | 2.46 µM (≈ 0.34 µg/mL) | 1.82 µM (≈ 0.251 µg/mL) | 1.39 µM (≈ 0.192 µg/mL) | 2.75 µM (≈ 0.38 µg/mL) | 3.04 µM (≈ 0.42 µg/mL) | 2.85 µM (≈ 0.394 µg/mL) | 2.96 µM (≈ 0.409 µg/mL) | 2.82 µM (≈ 0.39 µg/mL) | 3.55 µM (≈ 0.49 µg/mL) | 250 µM | 3.33 µM (≈ 0.46 µg/mL) | 2.67 µM (≈ 0.369 µg/mL) |  | 
COc1ccc(CN(C(=O)Cc2ccccc2)C(C(=O)NCc2ccccc2)c2ccc(O)c(O)c2)cc1 (stereo not shown) [Compound 5a, N-benzyl-2-(3,4-dihydroxyphenyl)-2-(N-(4-methoxybenzyl)-2-phenylacetamido)-acetamide] | 1.15 µM (≈ 0.587 µg/mL) | 0.88 µM (≈ 0.449 µg/mL) | < 10% | 0.62 µM (≈ 0.317 µg/mL) | 0.66 µM (≈ 0.337 µg/mL) | 0.62 µM (≈ 0.317 µg/mL) | 0.59 µM (≈ 0.301 µg/mL) | 0.32 µM (≈ 0.163 µg/mL) | 0.3 µM (≈ 0.153 µg/mL) | 0.58 µM (≈ 0.296 µg/mL) | 0.62 µM (≈ 0.317 µg/mL) | 0.66 µM (≈ 0.337 µg/mL) | 0.84 µM (≈ 0.429 µg/mL) | 0.63 µM (≈ 0.322 µg/mL) | 0.68 µM (≈ 0.347 µg/mL) |  | 0.68 µM (≈ 0.347 µg/mL) | 0.65 µM (≈ 0.332 µg/mL) | 1.61 µM | broad-spectrum activity
